These results are taken from patent US11981664B2, “Photoresponsive nutlin derivatives and uses thereof” (Rijksuniversiteit Groningen, priority 2018, dated 2024).

The test system of series [1] is p53 in BJ-hTert, RKO (colon carcinoma), U2OS (osteosarcoma) cell lines. Nature of the series: p53 protein levels (western blot) in additional cell lines. Format: cell-based. The conditions noted are these: U2OS (all cell lines tested), after light irradiation, 4 h. Here is the method:
(§1) FIG. 3: Functional p53 induction upon λ=400 nm irradiation in PPG-idasanutlin treated cells, a) RPE-1 cells were treated with indicated compounds (all 10 μM final) and fixed 4 h after 5 min (−/+400 nm) irradiation. Anti-p53 staining indicates p53 protein expression in the nucleus. […] Error bars represent mean +sd, ****P<0.0001 (unpaired t-test), Dots represent individual cells, n>125 cells per condition combined from 2 independent experiments. c) Representative western blot showing p53 protein levels in cells 4 h after addition of DMSO or PPG-idasanutlin and irradiation for indicated time periods. Hsp90 is used as a loading control. d) Selective outgrowth disadvantage in RPE-1 cells 6 days after PPG-idasanutlin treatment +400 nm irradiation for 5 min. e) Representative Western blot showing p53 protein levels in three cell lines (U2OS, RKO, BJhTert) 4 h after indicated treatments. f) Selective outgrowth inhibition in indicated cell lines 6 days after PPG-idasanutlin treatment +400 nm irradiation for 5 min. In all the experiments <1% DMSO was used.
RPE-1 cells were plated at equal density in 6-well plates followed by indicated treatments −/+irradiation (400 nm for 5 min) 24 h later. Cells were fixed and collected 4 h after treatment by wash out of the medium, single wash in 1× PBS followed by addition of laemmli buffer (4% SDS, 20% glycerol and 0.125 M Tris HCl). […]
(In general: A western blot detects proteins with antibodies after separation by electrophoresis.)

The subject of another series is RPE-1 p53-venus cells. Description: Live-cell imaging of cell division after single-cell laser irradiation. The conditions noted are these: RPE-1 p53-venus cells irradiated with 405 nm laser (0.1 s pulse) after treatment. The format is cell-based. On the procedure: FIG. 5: Spatiotemporal control of PPG-idasanutlin. a) Schematic representation of microwell set-up for laser irradiation of individual RPE-1 cells to activate PPG-idasanutlin. Laser target area (represented. by red circle) for single pulse (0.1 sec irradiation at 5 um interspaced position) indicated with scale. Individual irradiated cells followed by measuring nuclear p53-venus levels (fluorescence) every 15 min for 3 h after laser irradiation. Approximately 200 cells in each microwell. b) Percentage of cells that divide within 8 h after indicated treatments. Mean±sem of three independent experiments. Error bars indicate 95% confidence intervals. c, d) p53-venus fluorescent signal in individual RPE-1 cells tracked over time after indicated treatments as represented in (a). Line-graphs represent mean of individual cells. n>42 cells per condition pooled from three independent experiments. ***p<0.005, ****p<0.0001 significance in 2-way anova interaction score. […]
Using RPE-1 cells that stably expressed a venus-tagged version of p53 (p53-venus), p53 protein accumulation could be tracked with high time-resolution in individual cells by live-cell microscopy. […] To determine the functionality of the high spatiotemporal control obtained in this set-up, cell cycle progression was monitored in single cells following laser activation of PPG-idasanutlin (photorelease of idasanutlin).

Series [2] relates to p53 protein level in RPE-1 cells. Description: Immunofluorescent staining of nuclear p53 protein in RPE-1 cells. The format is cell-based. The conditions noted are these: for nuclear p53 protein levels: 4 h after addition, regardless of irradiation with 400 nm light. Here is the method: as §1
RPE-1 cells were plated on coverslips at equal density and treated with indicated drugs before −/+irradiation (400 nm for 5 min). For immune fluorescent staining, cells were fixed 4 h after irradiation by wash out of the medium, single wash in phosphate-buffered saline (1× PBS) and incubation in 3.7% formaldehyde for 5 min. Next, fixed cells were permeabilized with 0.2% TritonX in 1× PBS for 5 min before blocking in 3% […] (BSA) in 1× PBS supplemented with 0.1% Tween (PBST) for 1 h (all at room temperature (RT)). Cells were incubated overnight at 4° C. with primary antibody in PBST with 3% BSA, washed three times with PBST, and incubated with secondary antibody and DAPI in PBST with 3% BSA for 2 h at RT. After a final three time wash with PBST coverslips were mounted on microscopic analysis slides using ProLong Gold antifade reagent (Thermo Fisher). The following antibodies were used: anti-p53 (sc-126, Santa Cruz, 1/1000), phalloidin (A12380, Molecular Probes, 1/1000) and goat anti-mouse/Alexa. 488 (A11029, Molecular Probes, 1/1000).
Next, the biological activity of PPG-idasanutlin was investigated. Initial studies aimed at confirming a difference in p53 activation upon λ=400 nm light exposure after addition of the protected idasanutlin derivative (PPG-idasanutlin). To that end, non-transformed, p53-proficient retinal pigment epithelial cells (RPE-1) were treated with either DMSO (control), nutlin-3, idasanutlin or PPG-idasanutlin, followed by −/+irradiation with 400 nm light (FIG. 3).

Series [3] has the same test system. Nature of the series: p53 protein levels (western blot) in RPE-1 cells, dose-response. Format: cell-based. The conditions noted are these: increasing duration of 400 nm irradiation and varying doses, 4 h. On the procedure: as §1, with “used. […]” for “used.”
To examine the level of control over the dose-response of idasanutlin (employing PPG-idasanutlin), p53 protein levels in RPE-1 cells were determined by immunostaining after both increasing duration of 400 nm light irradiation and varying doses of PPG-idasanutlin (FIG. 3.c).

Series [4] is described as follows: Photochemical behavior (photocleavage) by UV-vis spectroscopy and UPLC-MS in aqueous buffer. The format is physicochemical. The conditions noted are these: λ=400 nm light, aqueous buffer pH=7.0. Here is the method: Thin Layer Chromatography (TLC) was performed using commercial Kieselgel 60, F254 silica gel plates with fluorescence-indicator UV254 (Merck, TLC silica gel 60 F254). For detection of components, UV light at λ=254 nm or λ=365 nm was used. Alternatively, oxidative staining using aqueous basic potassium permanganate solution (KMnO4) or aqueous acidic cerium phosphomolybdic acid solution (Seebach's stain) was used. Flash chromatography was performed on silica gel (Silicycle Siliaflash P60, […], 230-400 mesh). Drying of solutions was performed with MgSO4 and volatiles were removed with a rotary evaporator. Nuclear Magnetic Resonance spectra were measured with an Agilent Technologies 400-MR (400/54 Premium Shielded) spectrometer (400 MHz). All spectra were measured at room temperature (22-24° C.). Chemical shifts for ^1H- and ^13C-NMR measurements were determined relative to the residual solvent peaks in ppm (δH 7.26 for CHCl3, 2.50 for DMSO and 2.05 ppm for Acetone, δC 77.16 for CHCl3 and 39.52 for DMSO). The following abbreviations are used to indicate signal multiplicity: s, singlet; d, doublet; t, triplet; q, quartet; m, multiplet; brs, broad signal. All ^13C-NMR spectra are ^1H-broadband decoupled. High-resolution mass spectrometric measurements were performed on a Thermo scientific LTQ Orbitrap XL with ESI ionization. For spectroscopic measurements, solutions in Uvasol® grade solvents were measured in a 10 mm quartz cuvette. UV-Vis absorption spectra were recorded on an Agilent 8453 UV-Visible absorption Spectrophotometer.
(§2) Following the synthesis of PPG-idasanutlin as described in Example 1, its photochemical behavior under physiological conditions was investigated, UV-vis spectroscopy and UPLC-MS measurements were performed in aqueous buffer at pH=7.0. […] Moreover, no significant spontaneous hydrolysis of PPG-idasanutlin for >24 h in buffer at room temperature was observed (data not shown).

Series [5] relates to BJ-hTert, RKO (colon carcinoma), U2OS (osteosarcoma) cell lines. Nature of the series: Clonogenic outgrowth of additional cell lines. The format is cell-based. The conditions noted are these: 6 days after treatment + 400 nm irradiation for 5 min. On the procedure: as §1
(§3) Cells were plated at equal amounts (1000 cells per well) in a 24-wells plate followed by indicated treatments −/+irradiation (400 nm for 5 min) 24 h later. Cells were cultured under normal cell culture conditions for 6 days to allow colony outgrowth. Plates were fixed using 99.8% ice-cold methanol (Honeywell) for 10 min at RT. […]

A further series relates to p53-venus in RPE-1 cells. Nature of the series: Live-cell imaging of nuclear p53-venus signal after single-cell laser irradiation. The format is cell-based. On the procedure:
FIG. 5: Spatiotemporal control of PPG-idasanutlin. a) Schematic representation of microwell set-up for laser irradiation of individual RPE-1 cells to activate PPG-idasanutlin. Laser target area (represented. by red circle) for single pulse (0.1 sec irradiation at 5 um interspaced position) indicated with scale. Individual irradiated cells followed by measuring nuclear p53-venus levels (fluorescence) every 15 min for 3 h after laser irradiation. Approximately 200 cells in each microwell. b) Percentage of cells that divide within 8 h after indicated treatments. Mean±sem of three independent experiments. Error bars indicate 95% confidence intervals. c, d) p53-venus fluorescent signal in individual RPE-1 cells tracked over time after indicated treatments as represented in (a). Line-graphs represent mean of individual cells. n>42 cells per condition pooled from three independent experiments. ***p<0.005, ****p<0.0001 significance in 2-way anova interaction score.
For live cell imaging, cells were grown in picovitro microwells covered by a silicon membrane^4 in Leibovitz's L-15 (Gibco) CO2-independent medium supplemented with ultraglutamine, penicillin/streptomycin and 10% fetal calf serum. Images for both fixed slides and live cell imaging were obtained using a Delta Vision Elite (applied precision) equipped with a 60× 1.6 NA or 10× 0.75 NA lens (Olympus) and cooled CoolSnap CCD camera. Directed laser irradiation was performed using a brief (0.1 s) pulse of a 405 nm laser on the Delta Vision Elite microscope equipped with a X4 laser module (Applied Precision). Image analysis was done using ImageJ software. […]
Using RPE-1 cells that stably expressed a venus-tagged version of p53 (p53-venus), p53 protein accumulation could be tracked with high time-resolution in individual cells by live-cell microscopy. […] To determine the functionality of the high spatiotemporal control obtained in this set-up, cell cycle progression was monitored in single cells following laser activation of PPG-idasanutlin (photorelease of idasanutlin). […]

Series [6] can be described thus: Spontaneous hydrolysis in buffer. Format: physicochemical. The conditions noted are these: buffer at room temperature (data not shown). Here is the method:
as §2

Another series concerns RPE-1 cells. Nature of the series: Clonogenic outgrowth of RPE-1 cells. The conditions noted are these: 6 days. Format: cell-based. Here is the method:
as §1, §3

A further series has as its system cellular outgrowth. Description: Cell outgrowth experiments with PPG photoproduct. Format: cell-based. The conditions noted are these: photoproduct formed upon photocleavage of photonutlin. Here is the method: Cells were plated at equal amounts (1000 cells per well) in a 24-wells plate followed by indicated treatments −/+irradiation (400 nm for 5 min) 24 h later. Cells were cultured under normal cell culture conditions for 6 days to allow colony outgrowth. Plates were fixed using 99.8% ice-cold methanol (Honeywell) for 10 min at RT. After a 1 time wash in H2O, cells were incubated in 0.2% crystal violet (Sigma) in H2O for at least 3 h at RT to stain cellular outgrowth.

As to `CCN(CC)c1ccc2c(C(C)OC(=O)c3ccc(NC(=O)[C@@H]4N[C@@H](CC(C)(C)C)[C@](C#N)(c5ccc(Cl)cc5F)[C@H]4c4cccc(Cl)c4F)c(OC)c3)cc(=O)oc2c1` (stereo partly drawn) [PPG-idasanutlin, 1-(7-(diethylamino)-2-oxo-2H-chromen-4-yl)ethyl 4-((2R,3S,4R,5S)-3-(3-chloro-2-fluorophenyl)-4-(4-chloro-2-fluorophenyl)-4-cyano-5-neopentylpyrrolidine-2-carboxamido)-3-methoxybenzoate], the “stabilization of p53” value in series [1] is on record as “Selective stabilization”. Also, in the series on RPE-1 p53-venus cells, the “percentage of cells that divide within 8 h” value is recorded as “strongly drops”. For the same compound, in series [2] (10 μM, irradiated with 400 nm light (5 min), fixed 4 h after), the p53 protein level entry is given as “significant increase”. Moreover, in [2] (without 400 nm irradiation), the p53 stabilization result was “no functional effect”. In [3], the “accumulation of p53 protein” value is “clear dose-response dependent accumulation”. Besides, in [4], the “irradiation time for major photorelease of idasanutlin” value is given as not above 5 min; the “products observed upon photodeprotection” value is “solely the formation of idasanutlin and hydroxycoumarin”; the “quantum yield of photocleavage” value was determined as 0.1%. Further, the cellular outgrowth result in series [5] is “dramatic reduction”. Besides, the “nuclear p53-venus signal” value in the series on p53-venus in RPE-1 cells (neighbouring cells not irradiated by the 405 nm laser) was “significantly lesser extent”. For the same compound, the “nuclear p53-venus signal” value in the series with p53-venus in RPE-1 cells (non-irradiated cells from adjacent wells at micrometer distance) is recorded as “completely absent”. Besides, the “nuclear p53-venus signal” value in the series with p53-venus in RPE-1 cells (single cells irradiated with 405 nm laser, 15 min intervals) is “selective stabilization”. Besides, the “time without significant spontaneous hydrolysis” value in [6] is more than 24 h. The colony outgrowth entry in the series on RPE-1 cells (after irradiation with 400 nm for 5 min) is listed as “selectively blocked”. For the same compound, in the series on RPE-1 cells (without 400 nm irradiation), the “colony outgrowth (growth inhibition)” value is listed as “did not show any growth inhibition”.
`CCN(CC)c1ccc2c(C(C)O)cc(=O)oc2c1` (stereo not drawn) [PPG 6, 7-(diethylamino)-4-(1-hydroxyethyl)-2H-chromen-2-one]: the cellular outgrowth entry in the series on cellular outgrowth is recorded as “does not perturb”.
For the compound `COc1ccc(C2=N[C@@H](c3ccc(Cl)cc3)[C@@H](c3ccc(Cl)cc3)N2C(=O)N2CCNC(=O)C2)c(OC(C)C)c1` [nutlin-3, reference compound], the “nuclear p53 protein levels” value in [2] (10 μM) is recorded as “significant increase”.
Consider `COc1cc(C(=O)O)ccc1NC(=O)[C@@H]1N[C@@H](CC(C)(C)C)[C@](C#N)(c2ccc(Cl)cc2F)[C@H]1c1cccc(Cl)c1F` [idasanutlin, 4-((2R,3S,4R,5S)-3-(3-chloro-2-fluorophenyl)-4-(4-chloro-2-fluorophenyl)-4-cyano-5-neopentylpyrrolidine-2-carboxamido)-3-methoxybenzoic acid, reference compound], for which, in series [2] (10 μM), the “nuclear p53 protein levels” value is given as “significant increase”.
